The values below come from patent US20070213340A1, “Farnesyl protein transferase inhibitors” (priority 2006, published 2007).

The test addresses farnesyl protein transferase (Homo sapiens, UniProt P49354+P49356). As to the kind of experiment: FPT IC50 (inhibition of farnesyl protein transferase, in vitro enzyme assay). The test is classed as biochemical. The note with it: procedure of WO 95/10516. The protocol:
FPT IC50 (inhibition of farnesyl protein transferase, in vitro enzyme assay) was determined, and COS Cell IC50 (Cell-Based Assay) could be determined following the assay procedures described in WO 95/10516, published Apr. 20, 1995. GGPT IC50 (inhibition of geranylgeranyl protein transferase, in vitro enzyme assay), Cell Mat Assay, and anti-tumor activity (in vivo anti-tumor studies) could be determined by the assay procedures described in WO 95/10516. The disclosure of WO 95/10516 is incorporated herein by reference thereto.

One may read the IC50 as the concentration that gives 50% inhibition. `CCOC(=O)CCCNC(=O)[C@H]1CN(C(=O)OC(C)(C)C)CCN1C1c2ccc(Cl)cc2CCc2cccnc21` (single isomer, unassigned) [compound 6, 4-(8-Chloro-6,11-dihydro-5H-benzo[5,6]cyclohepta[1,2-b]pyridin-11-yl)-3R-(3-ethoxycarbonyl-propylcarbamoyl)-piperazine-1-carboxylic acid tert-butyl ester] came in with an IC50 of 5.2 nM. This lies in the single-digit nanomolar range. The figure for `CCOC(=O)CCCNC(=O)[C@H]1CN(C(=O)OC(C)(C)C)CCN1C1c2ccc(Cl)cc2CCc2cccnc21` (single isomer, unassigned) [compound 7, 4-(8-Chloro-6,11-dihydro-5H-benzo[5,6]cyclohepta[1,2-b]pyridin-11-yl)-3R-(3-ethoxycarbonyl-propylcarbamoyl)-piperazine-1-carboxylic acid tert-butyl ester] is 5.5 nM. With `CC(C)(C)OC(=O)N1CCN(C2c3ccc(Cl)cc3CCc3cccnc32)[C@@H](C(=O)NCCCC(=O)O)C1` (single isomer, unassigned) [compound 8, 3R-(3-Carboxy-propylcarbamoyl)-4-(8-chloro-6,11-dihydro-5H-benzo[5,6]cyclohepta[1,2-b]pyridin-11-yl)-piperazine-1-carboxylic acid tert-butyl ester] the figure was 5.5 nM; with `CC(C)(C)OC(=O)N1CCN(C2c3ccc(Cl)cc3CCc3cccnc32)[C@@H](C(=O)NCCCC(=O)O)C1` (single isomer, unassigned) [compound 9, 3R-(3-Carboxy-propylcarbamoyl)-4-(8-chloro-6,11-dihydro-5H-benzo[5,6]cyclohepta[1,2-b]pyridin-11-yl)-piperazine-1-carboxylic acid tert-butyl ester], 6.3 nM. With `CC(C)(C)OC(=O)N1CCN(C2c3ccc(Cl)cc3CCc3cccnc32)[C@@H](C(=O)NCCCn2ccnc2)C1` (stereo partly drawn) [Compound 12, 4-(8-Chloro-6,11-dihydro-5H-benzo[5,6]cyclohepta[1,2-b]pyridin-11-yl)-3R-(3-imidazol-1-yl-propylcarbamoyl)-piperazine-1-carboxylic acid tert-butyl ester] the figure was 1.2 nM.
